Source: patent US7053090B2, “Triazaspiro[5.5]undecane derivatives and drugs containing the same as the active ingredient” (Ono Pharmaceutical Co., Ltd., priority 2001, dated 2006)
pIC50: −log10 of the molar value. Where a name gives a salt, the structure may show the parent alone.

Biological target: T1, human CCR5 (Homo sapiens, UniProt P51681)
T1 construct: expressed in transfected cells; host or cells: CHO-dhfr(-) cells stably transfected with pEF-BOS-bsr/hCCR5
Test: Inhibition test on the binding of RANTES to CCR5 (RANTES-induced transient increase of Ca ion)
Assay type: cell-based
Conditions: human CCR5 stably over-expressing CHO cell; recombinant human RANTES 10 nM; intracellular Ca2+ transient increase
Procedure: (1) Isolation of Human CCR5 Gene
Human placental cDNA was prepared using Marathon cDNA amplification kit (Clontech). PCR primers hCCR5Xbal-F1: 5′-[…]-3′ (SEQ ID NO:1) and hCCR5Xbal-R1: 5′-[…]-3′ (SEQ ID NO:2) were designed based on the sequence of GenBank U54994.
Using the human placental cDNA as the template and using Ex Taq (Takara), PCR reaction (2 minutes at 95° C.→(30 seconds at 95° C., 45 seconds at 60° C., 1 minute at 72° C.)×35 times) was carried out. The thus amplified PCR product was subjected to a 1% agarose gel electrophoresis, purified using QIAquick Gel Extraction Kit (QUIAGEN) and then digested with a restriction enzyme Xbal. The digested fragments were ligated to an expression vector pEF-BOS-bsr using DNA Ligation Kit Ver. […]
The thus established human CCR5 stably over-expressing CHO cell (CCR5/CHO cell) was suspended in Ham's F-12 medium containing FBS (10%) and dispensed in […] portions into a 96 well plate. […] Transient increase in the intracellular Ca^2+ concentration induced by the human RANTES was measured using a Ca^2+ detector for 96 well use (Hamamatsu Photonics), and inhibition ratio (%) of the test compound was calculated by the following calculation formula. Inhibition ratio=(Ec−Ea)/Ec×100 • Ec: measured value of Ca^2+ transient increase by RANTES • Ea: measured value of Ca^2+ transient increase by RANTES when a test compound was added.

T1 sequence (P51681 whole entry): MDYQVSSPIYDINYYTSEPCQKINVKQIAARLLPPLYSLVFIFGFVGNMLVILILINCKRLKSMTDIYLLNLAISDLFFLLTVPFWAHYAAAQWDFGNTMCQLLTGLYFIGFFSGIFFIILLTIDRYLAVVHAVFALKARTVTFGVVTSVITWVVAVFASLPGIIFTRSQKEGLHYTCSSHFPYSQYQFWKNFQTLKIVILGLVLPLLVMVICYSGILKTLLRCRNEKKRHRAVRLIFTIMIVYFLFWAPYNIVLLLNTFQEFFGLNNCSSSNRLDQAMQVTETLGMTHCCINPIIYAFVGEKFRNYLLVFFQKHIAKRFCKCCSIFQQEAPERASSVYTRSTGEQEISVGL

| pIC50 | Structure (SMILES) |
| --- | --- |
| 7.57 | CCCCN1C(=O)[C@@H]([C@H](O)C(C)C)NC(=O)C12CCN(Cc1ccc(Oc3ccccc3)nc1)CC2 [Example 2, (3R)-1-butyl-2,5-dioxo-3-((1R)-1-hydroxy-2-methylpropyl)-9-(6-phenyloxypyridin-3-ylmethyl)-1,4,9-triazaspiro[5.5]undecane.2hydrochloride] |
| 6.43 | CCCCN1C(=O)[C@H]([C@@H](O)C(C)C)NC(=O)C12CCN(Cc1ccc(Oc3ccccc3)nc1)CC2 [Example 3, (3S)-1-butyl-2,5-dioxo-3-((1S)-1-hydroxy-2-methylpropyl)-9-(6-phenyloxypyridin-3-ylmethyl)-1,4,9-triazaspiro[5.5]undecane.2hydrochloride] |
